Experimental data taken from US8685976B2, “Cell adhesion promoting agent and method of promoting cell adhesion” (Kyoto University, priority 2008, dated 2014).

Columns and labels:
Jurkat cells = experiment: Cell adhesion assay by addition, Jurkat cells; format: cell-based, human
Description: 1 μL each of an aqueous solution of adhesamine (1), Type I collagen, poly-L-lysine hydrochloride, poly-L-ornithine hydrobromide, and fibronectin at a concentration of 50, 500, and 5000 μg/ml, was added to 96-well plate. 100 μL of HepG2 suspension (4×10^5 cells/mL) was added to each well. After 3-hour incubation at 37° C., non-adherent cells were removed by washing each well with PBS three times, and the attached cells were counted with a Neubauer counting chamber (Digital Bio). For Jurkat cells, 100 μL of cell suspension was added to each well at a density of 1×10^6 cells/ml. After 5-hour incubation at 37° C., non-adhered cells were removed by washing each well with PBS twice, and the attached cells were counted with a Neubauer counting chamber (Digital Bio). To calculate adhesion rates, firstly seeded cell numbers were assigned a value of 100%. As control tests, the same tests were conducted using wells supplied with only 1 μL of DMSO. Each assay was conducted in triplicate, and the means and standard derivations were calculated.
The comparison between adhesamine and its derivatives regarding cell adhesion promotion activity was conducted using Jurkat cells by way of reagent addition assay. 1 μL each of DMSO solutions of the compounds having concentrations of 60, 600, and 6000 μM were added to 96-well plates. The wells were supplied with 100 μL each of Jurkat cell suspensions (1×10^6 cells/mL). After 5-hour incubation at 37° C., non-adhered cells were removed by washing each well with PBS twice, and the attached cells were counted with a Neubauer counting chamber (Digital Bio). To calculate adhesion rates, firstly seeded cell numbers were assigned a value of 100%. As control tests, the same tests were conducted using well plates supplied with only 1 μL of DMSO. Each assay was conducted in triplicate, and the means and standard derivations were calculated.
However, since HepG2 cells have an intrinsic propensity to adhere to plastic tissue-culture plates, a test was conducted to determine whether the same effect was also obtained in the Jurkat cell line and human T-lymphocytes that are floating cells. Remarkably, 30% and 60% of the Jurkat cells attached to a culture plate in the presence of 6 and 60 μM of adhesamine, respectively (FIG. 1D). Removal of adhesamine by washing the plate twice with PBS detached the cells. 93% of Jurkat cells were released from the surface of a culture plate 24 hour after washing (FIG. 2). […] Simply adding adhesamine to the medium promoted adhesion of Jurkat cells onto culture plates, but not to each other.

CHO 677 cells = experiment: Cell adhesion assay, CHO 677; format: cell-based; settings: CHO 677, 6 μM, vs parental CHO-K1
Description: (A) and (B) show CHO-K1 (wild-type) cells incubated with 1% (v/v) DMSO (A) or 6 μM adhesamine (B). (C) and (D) show CHO 677 incubated with 1% (v/v) DMSO (A) or 6 μM adhesamine (B). […] Cells were seeded onto adhesamine-added or fibronectin-coated plastic wells. The concentrations of adhesamine and fibronectin were 6 μM and 5 μg/mL, respectively. Adhered cells were counted at 5 hours after seeding. Each point represents average±SD.
For CHO wild-type and CHO mutant cell lines, 100 μL of trypsinized cell suspension in a culture medium was added to each well at a density of 2×10^5 cells/mL. After 5-hour incubation at 37° C., non-adhered cells were removed by washing each well with PBS twice, and the attached cells were counted with a Neubauer counting chamber (Digital Bio). To calculate adhesion rates, the cell numbers before washing were assigned a value of 100%. Each assay was conducted in triplicate, and the means and standard derivations were calculated for a minimum of three independent experiments.

[1] = system: extracellular signal-regulated kinase (ERK); experiment: Western blotting, ERK activation; format: cell-based, human; settings: Jurkat, 6 μM
Description: Jurkat cells were treated with adhesamine (6 μM) in a serum-poor culture medium (0.1% FBS) for the indicated periods of time. The treated cell lysates were Western blotted with antibodies against FAK phospho-tyrosine^397 (pFAK), FAK, ERK1/2 phospho-threonine^202/tyrosine^204 (pERK) or ERK. In (B), Jurkat cells were incubated for 5 hours with varied concentrations of adhesamine or poly-L-lysine. The cell lysates were Western blotted with antibodies against FAK phospho-tyrosine^397 or FAK. […] The concentration of adhesamine (1) was 6 μM.
Jurkat cells were maintained in an RPMI medium containing 10% FBS. 5-6 million Jurkat cells were dispensed to a well of a 6-well plate in a final volume of 2 mL, and then incubated at 37° C. for 0-5 hours in the presence of adhesamine or poly-L-lysine. Non-adherent cells were removed and pelleted, and the remaining adherent cells were lysed in a 125 mM Tris-HCl buffer (pH 6.8) containing 4% SDS, 10% glycerol, 0.006% bromophenol blue, and 1.8% β-mercaptoethanol. The adherent cell homogenate was combined with pelleted nonadherent cells from the same well, and the combined sample was boiled for 5 minutes. The samples were separated by SDS-PAGE and electroblotted onto a nitrocellulose membrane. The membranes were blocked in 1% BSA and incubated with primary antibody, and then with horseradish peroxidase-conjugated secondary antibody. […]

CSc1nc(Cl)c(C=O)c(N2CC[N+]3(CC2)CC[N+]2(CCN(c4nc(SC)nc(Cl)c4C=O)CC2)CC3)n1 [adhesamine]
Jurkat cells attached to a culture plate (Jurkat cells; 6 μM in medium): 30% | Jurkat cells attached to a culture plate (Jurkat cells; 60 μM in medium): 60% | cell attachment on addition to the medium, compared with coating reagents (Jurkat cells; FIG. 12): significantly greater attachment than addition of the other coating reagents | cell-cell adhesion (Jurkat cells; added to the medium): did not induce | response of cell adhesion to adhesamine (CHO 677 cells): less responsive | time after incubation at which ERK was phosphorylated [1]: 5 h
